{
  "source": "paper PMC5311937",
  "about": "“In Vitro Characterization and Concerted Function of Three Core Enzymes of a Glycyl Radical Enzyme - Associated Bacterial Microcompartment” (Scientific Reports, 2017)",
  "key": {"[1]": {"molecular_target": "T1, AldDH (acylating aldehyde dehydrogenase, PduP) (Rhodopseudomonas palustris, UniProt Q21A49)", "T1 construct": "gene RPC_1174; N-terminal encapsulation peptide kept", "T1 sequence (Q21A49 entry or part of it)": "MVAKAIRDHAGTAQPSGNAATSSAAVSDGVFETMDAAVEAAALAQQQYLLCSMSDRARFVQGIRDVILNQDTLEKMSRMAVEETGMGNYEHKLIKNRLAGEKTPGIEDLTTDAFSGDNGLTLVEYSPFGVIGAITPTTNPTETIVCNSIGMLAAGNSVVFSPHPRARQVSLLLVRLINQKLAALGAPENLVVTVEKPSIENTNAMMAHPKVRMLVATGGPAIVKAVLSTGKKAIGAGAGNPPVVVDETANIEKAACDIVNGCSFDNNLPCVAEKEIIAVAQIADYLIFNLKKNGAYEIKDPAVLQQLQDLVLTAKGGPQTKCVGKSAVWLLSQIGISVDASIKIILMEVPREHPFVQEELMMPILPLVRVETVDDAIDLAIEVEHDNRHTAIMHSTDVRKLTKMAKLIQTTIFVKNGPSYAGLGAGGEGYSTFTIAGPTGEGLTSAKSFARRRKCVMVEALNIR", "test": "X-ray crystal structure, […] Å", "assay_type": "binding", "conditions": "active site, acylated enzyme (Cys330 S-propionylated from propionyl-CoA); crystals at pH 8.1"}, "[2]": {"molecular_target": "T1, AldDH (acylating aldehyde dehydrogenase, PduP)", "test": "X-ray crystal structure, […] Å", "assay_type": "binding", "conditions": "active site; pH 4.8, 5 mM NAD+"}, "[3]": {"molecular_target": "T1, AldDH (acylating aldehyde dehydrogenase, PduP)", "test": "NAD+ reduction monitored at […] nm", "assay_type": "biochemical", "conditions": "5 mM NAD+, 0.5 mM CoA, 200 mM MOPS/KOH pH 7.5; kcat per tetrameric enzyme; read-out: apparent KM"}, "[4]": {"molecular_target": "T1, AldDH (acylating aldehyde dehydrogenase, PduP)", "test": "X-ray crystal structure, […] Å", "assay_type": "binding", "conditions": "active site; propionyl-CoA or CoA fitted; pH 4.8; also in one site of 5JFN, where Cys330 is S-propionylated (covalent)"}, "[5]": {"molecular_target": "acylating aldehyde dehydrogenase (AldDH) from Rhodopseudomonas palustris BisB18, Strep-tagged (Rhodopseudomonas palustris BisB18)", "test": "SEC; gel filtration on HiLoad 16/600 Superdex 200 pg, 20 mM MOPS/KOH pH 7.5, 50 mM KCl"}, "[6]": {"molecular_target": "acylating aldehyde dehydrogenase (AldDH) from Rhodopseudomonas palustris BisB18, Strep-tagged (Rhodopseudomonas palustris BisB18)", "test": "crystal structure; AldDH co-crystallised with propionyl-CoA at pH 4.8, space group P 1, 2.5 Å"}, "[7]": {"molecular_target": "acylating aldehyde dehydrogenase (AldDH) from Rhodopseudomonas palustris BisB18, Strep-tagged (Rhodopseudomonas palustris BisB18)", "test": "crystal structure; AldDH co-crystallised with NAD+ at pH 4.8, space group P2_(1), 2.3 Å, twinned"}, "[8]": {"molecular_target": "acylating aldehyde dehydrogenase (AldDH) from Rhodopseudomonas palustris BisB18, Strep-tagged (Rhodopseudomonas palustris BisB18)", "test": "crystal structure; AldDH co-crystallised with propionyl-CoA at pH 8.1, space group P 2_(1), 1.9 Å; CoA and S-propionylcysteine in the active sites"}},
  "data": [
    {"molecule": "CC(C)(COP(=O)(O)OP(=O)(O)OC[C@H]1O[C@@H](n2cnc3c(N)ncnc32)[C@H](O)[C@@H]1OP(=O)(O)O)[C@@H](O)C(=O)NCCC(=O)NCCS", "note": "[CoA]", "values": [
      {"measurement": "X-ray crystal structure, 1.90 Å", "setting": "[1]", "value": "In three of the four active sites of the tetramer we also found coenzyme A bound"}
    ]},
    {"molecule": "NC(=O)c1ccc[n+]([C@@H]2O[C@H](COP(=O)(O)OP(=O)(O)OC[C@H]3O[C@@H](n4cnc5c(N)ncnc54)[C@H](O)[C@@H]3O)[C@@H](O)[C@H]2O)c1", "note": "[NAD^+]", "values": [
      {"measurement": "X-ray crystal structure, 2.30 Å", "setting": "[2]", "value": "Electron density in the active sites allowed the fitting of NAD^+"}
    ]},
    {"molecule": "CCC=O", "note": "[propionaldehyde]", "values": [
      {"measurement": "Km", "setting": "[3]", "value": "1200 ± 170", "unit": "µM"}
    ]},
    {"molecule": "CCC(=O)SCCNC(=O)CCNC(=O)[C@H](O)C(C)(C)COP(=O)(O)OP(=O)(O)OC[C@H]1O[C@@H](n2cnc3c(N)ncnc32)[C@H](O)[C@@H]1OP(=O)(O)O", "note": "[propionyl-CoA]", "values": [
      {"measurement": "X-ray crystal structure, 2.52 Å", "setting": "[4]", "value": "we found electron density that allowed the fitting of either propionyl-CoA or CoA"}
    ]},
    {"molecule": "acylating aldehyde dehydrogenase (AldDH) from Rhodopseudomonas palustris BisB18, Strep-tagged (enzyme)", "values": [
      {"measurement": "stoichiometry N", "setting": "[5]", "value": 4},
      {"measurement": "stoichiometry N", "setting": "[6]", "value": 4},
      {"measurement": "stoichiometry N", "setting": "[7]", "value": 4},
      {"measurement": "stoichiometry N", "setting": "[8]", "value": 4}
    ]}
  ]
}
